Test results as given in PubChem BioAssay (NCI).
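Tested at 5 concentrations; 48 h exposure; 96-well plates; endpoints linearly interpolated, else capped at highest concentration. Definition used: TGI = concentration required for complete inhibition of growth.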

Legend:
Test in all cases: NCI anticancer screen, dose series, 48 h
[1] = system: 786-0 renal
[2] = system: DMS 114 small cell lung
[3] = system: SR leukemia
[4] = system: CCRF-CEM leukemia
[5] = system: IGROV1 ovarian
[6] = system: NCI-H23 lung
[7] = system: NCI-H226 lung
[8] = system: HOP-92 NSCLC
[9] = system: M19-MEL melanoma
[10] = system: UACC-257 melanoma
[11] = system: HT29 colon
[12] = system: MALME-3M melanoma
[13] = system: COLO 205 colon
[14] = system: K-562 leukemia
[15] = system: ACHN renal
[16] = system: RPMI-8226 leukemia
[17] = system: SNB-78 CNS
[18] = system: OVCAR-5 ovarian
[19] = system: SW-620 colon
[20] = system: UO-31 renal
[21] = system: SK-OV-3 ovarian
[22] = system: U251 CNS
[23] = system: SK-MEL-2 melanoma
[24] = system: CAKI-1 renal
[25] = system: XF 498 CNS
[26] = system: SNB-75 CNS
[27] = system: OVCAR-8 ovarian
[28] = system: UACC-62 melanoma
[29] = system: SK-MEL-28 melanoma
[30] = system: SF-295 CNS
[31] = system: EKVX NSCLC
[32] = system: NCI-H460 lung
[33] = system: SF-268 CNS
[34] = system: DLD-1 colon
[35] = system: KM20L2 colon
[36] = system: HCC-2998 colon
[37] = system: M14 melanoma
[38] = system: LXFL 529 NSCLC
[39] = system: A549 NSCLC
[40] = system: HL-60(TB) leukemia
[41] = system: HCT-116 colon
[42] = system: NCI-H522 lung
[43] = system: SNB-19 CNS
[44] = system: TK-10 renal
[45] = system: A498 renal
[46] = system: SN12C renal
[47] = system: OVCAR-3 ovarian
[48] = system: MOLT-4 leukemia
[49] = system: HOP-62 NSCLC
[50] = system: OVCAR-4 ovarian
[51] = system: KM12 colon
[52] = system: LOX IMVI melanoma
[53] = system: SK-MEL-5 melanoma
[54] = system: SF-539 CNS
[55] = system: HOP-18 NSCLC
[56] = system: DMS 273 small cell lung
[57] = system: HCT-15 colon

Compound: COc1cc2c(cc1OC)C1Cc3cc(OC)c(OC)cc3N1CC2 (stereo unspecified)
- TGI [1]: 37.9 µM
- TGI [2]: 37.5 µM
- TGI [3]: > 100 µM
- TGI [4]: > 100 µM
- TGI [5]: > 100 µM
- TGI [6]: > 100 µM
- TGI [7]: 47.9 µM
- TGI [8]: > 100 µM
- TGI [9]: 80.5 µM
- TGI [10]: > 100 µM
- TGI [11]: > 100 µM
- TGI [12]: 54.4 µM
- TGI [13]: 52.1 µM
- TGI [14]: > 100 µM
- TGI [15]: 43 µM
- TGI [16]: 88 µM
- TGI [17]: > 100 µM
- TGI [18]: > 100 µM
- TGI [19]: > 100 µM
- TGI [20]: 86 µM
- TGI [21]: > 100 µM
- TGI [22]: > 100 µM
- TGI [23]: > 100 µM
- TGI [24]: 88.5 µM
- TGI [25]: 43.6 µM
- TGI [26]: 56.2 µM
- TGI [27]: > 100 µM
- TGI [28]: > 100 µM
- TGI [29]: > 100 µM
- TGI [30]: > 100 µM
- TGI [31]: 89.5 µM
- TGI [32]: > 100 µM
- TGI [33]: > 100 µM
- TGI [34]: > 100 µM
- TGI [35]: > 100 µM
- TGI [36]: > 100 µM
- TGI [37]: 53.4 µM
- TGI [38]: 61.1 µM
- TGI [39]: 79.9 µM
- TGI [40]: 53.2 µM
- TGI [41]: > 100 µM
- TGI [42]: 35 µM
- TGI [43]: > 100 µM
- TGI [44]: 50.5 µM
- TGI [45]: > 100 µM
- TGI [46]: > 100 µM
- TGI [47]: > 100 µM
- TGI [48]: > 100 µM
- TGI [49]: 84.9 µM
- TGI [50]: 57.7 µM
- TGI [51]: > 100 µM

Compound: CC1COS(=O)O1 (stereo unspecified)
- TGI [1]: > 100 µM
- TGI [2]: > 100 µM
- TGI [52]: > 100 µM
- TGI [3]: > 100 µM
- TGI [4]: > 100 µM
- TGI [53]: > 100 µM
- TGI [5]: > 100 µM
- TGI [6]: > 100 µM
- TGI [7]: > 100 µM
- TGI [8]: > 100 µM
- TGI [9]: > 100 µM
- TGI [10]: > 100 µM
- TGI [11]: > 100 µM
- TGI [12]: > 100 µM
- TGI [13]: > 100 µM
- TGI [14]: > 100 µM
- TGI [15]: > 100 µM
- TGI [16]: > 100 µM
- TGI [17]: > 100 µM
- TGI [18]: > 100 µM
- TGI [54]: > 100 µM
- TGI [19]: > 100 µM
- TGI [20]: > 100 µM
- TGI [21]: > 100 µM
- TGI [23]: > 100 µM
- TGI [24]: > 100 µM
- TGI [25]: > 100 µM
- TGI [26]: > 100 µM
- TGI [27]: > 100 µM
- TGI [28]: > 100 µM
- TGI [29]: > 100 µM
- TGI [30]: > 100 µM
- TGI [31]: > 100 µM
- TGI [55]: > 100 µM
- TGI [32]: > 100 µM
- TGI [33]: > 100 µM
- TGI [34]: > 100 µM
- TGI [35]: > 100 µM
- TGI [56]: > 100 µM
- TGI [36]: > 100 µM
- TGI [37]: > 100 µM
- TGI [39]: > 100 µM
- TGI [40]: > 100 µM
- TGI [41]: > 100 µM
- TGI [42]: > 100 µM
- TGI [43]: > 100 µM
- TGI [57]: > 100 µM
- TGI [44]: > 100 µM
- TGI [45]: > 100 µM
- TGI [46]: > 100 µM
- TGI [47]: > 100 µM
- TGI [48]: > 100 µM
- TGI [49]: > 100 µM
- TGI [50]: > 100 µM
- TGI [51]: > 100 µM
